Results published in paper PMC2695807, “Plant Insecticide L-Canavanine Repels Drosophila via the Insect Orphan GPCR DmX” (PLoS Biology, 2009).

Molecular target: T1, DmX receptor (DmXR) (Drosophila melanogaster, UniProt Q70GQ8)
T1 construct: gene mtt; HA-DmXR WT, transiently expressed in HEK 293 cells
T1 sequence (Q70GQ8 1-1073): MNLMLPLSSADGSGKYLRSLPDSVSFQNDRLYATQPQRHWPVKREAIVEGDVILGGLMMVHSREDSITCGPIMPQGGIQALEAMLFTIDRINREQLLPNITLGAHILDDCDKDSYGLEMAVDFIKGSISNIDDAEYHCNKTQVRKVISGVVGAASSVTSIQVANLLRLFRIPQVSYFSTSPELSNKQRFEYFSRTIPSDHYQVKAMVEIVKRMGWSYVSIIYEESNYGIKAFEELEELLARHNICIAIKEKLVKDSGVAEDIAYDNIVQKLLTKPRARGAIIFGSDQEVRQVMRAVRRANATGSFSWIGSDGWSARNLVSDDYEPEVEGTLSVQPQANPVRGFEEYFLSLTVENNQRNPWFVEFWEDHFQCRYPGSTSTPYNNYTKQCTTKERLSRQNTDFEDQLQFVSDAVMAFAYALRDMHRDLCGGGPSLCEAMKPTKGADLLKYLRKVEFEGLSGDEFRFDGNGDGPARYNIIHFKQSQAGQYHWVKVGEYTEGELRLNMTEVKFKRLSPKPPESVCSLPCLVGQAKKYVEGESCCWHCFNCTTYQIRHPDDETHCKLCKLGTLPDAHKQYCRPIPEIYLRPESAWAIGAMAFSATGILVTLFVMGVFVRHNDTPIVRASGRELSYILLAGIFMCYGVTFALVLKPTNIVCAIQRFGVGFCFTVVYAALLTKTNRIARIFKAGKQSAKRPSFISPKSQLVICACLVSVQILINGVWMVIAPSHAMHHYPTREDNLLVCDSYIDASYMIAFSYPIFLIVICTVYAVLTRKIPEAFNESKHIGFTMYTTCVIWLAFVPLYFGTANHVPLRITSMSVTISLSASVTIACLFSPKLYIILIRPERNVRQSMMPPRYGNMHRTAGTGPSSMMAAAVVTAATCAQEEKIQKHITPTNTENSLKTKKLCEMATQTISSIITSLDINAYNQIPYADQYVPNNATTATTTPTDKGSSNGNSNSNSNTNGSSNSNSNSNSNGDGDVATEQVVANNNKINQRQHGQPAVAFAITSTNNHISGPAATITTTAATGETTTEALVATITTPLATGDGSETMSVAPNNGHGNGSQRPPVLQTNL
Test: IP accumulation in HEK cells coexpressing DmXR and Gqi9; inhibition of activation by […] L-canavanine (antagonist)
Assay type: cell-based

CN=C(N)NCCC[C@H](N)C(=O)O [NMA, N-methyl-L-arginine]
IC50: 200 ± 200 µM
